Earlier results as cited in patent publication US10028917B2, “Beclomethasone dipropionate compositions in modified-release gastro-resistant microspheres and process for obtaining them” (SOFAR SPA, priority 2010, dated 2018).

Conditions: relative to hydrocortisone

In the case of `CCC(=O)OCC(=O)[C@@]1(OC(=O)CC)[C@@H](C)C[C@H]2[C@@H]3CCC4=CC(=O)C=C[C@]4(C)[C@@]3(Cl)[C@@H](O)C[C@@]21C` [BDP, Beclomethasone dipropionate], the “times more powerful than hydrocortisone” value is listed as 500 times.
